Laboratory results taken from patent publication US20250332173A1, “COMPOUNDS AND METHODS FOR MODULATING NUCLEIC ACID SPLICING” (REMIX THERAPEUTICS INC., priority 2021, published 2025).
Where two headings read alike, the source gives them in different places.

Assays:
[1] = system: HTT mRNA; assay: RT-qPCR splicing assay, HTT canonical junction (CJ) and alternative junction (AJ) mRNA; assay type: cell-based, human; conditions: Homo sapiens; for AC50: increase in HTT alternative junction (AJ) mRNA, read-out: HTT AJ AC50
Method in brief: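 Read-out is one-step RT-qPCR on cell lysates detecting the exon-exon junction of each isoform, normalized to a housekeeping gene (PPIA in A673, GAPDH or GUSB in K562).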

[2] = system: MYB mRNA; assay: RT-qPCR splicing assay, MYB canonical junction (CJ) and alternative junction (AJ) mRNA; assay type: cell-based, human; conditions: Homo sapiens; for AC50: increase in MYB alternative junction (AJ) mRNA, read-out: MYB AJ AC50
Procedure: The expression of a target mRNA was measured by detecting the formation of an exon-exon junction in the canonical transcript (CJ). A compound mediated exon-inclusion event was detected by observing an increase in formation of a new junction with an alternative exon (AJ). Real-time qPCR assays were used to detect these splicing switches and interrogate the potency of various compounds towards different target genes. A high-throughput real time quantitative PCR (RT-qPCR) assay was developed to measure these two isoforms of the mRNA (CJ and AJ) for exemplary genes, such as HTT, SMN2, and MYB, together with a control housekeeping gene, GAPDH or GUSB or PPIA, used for normalization. Briefly, the A673 or K562 cell line was treated with various compounds described herein (e.g., compounds of Formula (I)). After treatment, the levels of the HTT, MYB, or SMN2 mRNA targets were determined from each sample of cell lysate by cDNA synthesis followed by qPCR.
• Cells-to-CT 1-step kit: ThermoFisher A25602, Cells-to-CT lysis reagent: ThermoFisher 4391851C, TaqMan™ Fast Virus 1-Step Master Mix: ThermoFisher 4444436 • GAPDH: VIC-PL, ThermoFisher 4326317E (Assay: Hs99999905_m1)—used for K562/suspension cell lines • GUSB: VIC-PL, ThermoFisher 4326320E (Assay: Hs99999908_m1)—used for K562/suspension cell lines • PPIA: VIC-PL, ThermoFisher 4326316E (Assay: Hs99999904_m1)—used for A673/adherent cell lines
The A673 cell line was cultured in DMEM with 10% FBS. Cells were diluted with full growth media and plated in a 96-well plate (15,000 cells in 100 ul media per well). The plate was incubated at 37° C. with 5% CO2 for 24 hours to allow cells to adhere. An 11-point 3-fold serial dilution of the compounds was made in DMSO then diluted in media in an intermediate plate. Compounds were transferred from the intermediate plate to the cell plate with the top dose at a final concentration of 10 uM in the well. Final DMSO concentration was kept at or below 0.25%. The cell plate was returned to the incubator at 37° C. with 5% CO2 for an additional 24 hours.
The K562 cell line was cultured in IMDM with 10% FBS. For K562, cells were diluted with full growth media and plated in either a 96-well plate (50,000 cells in 50 uL media per well) or a 384-well plate (8,000-40,000 cells in 45 uL media per well). An 11-point 3-fold serial dilution of the compounds were made in DMSO then diluted in media in an intermediate plate. Compound was transferred from the intermediate plate to the cell plate with the top dose at a final concentration of 10 uM in the well. Final DMSO concentration was kept at or below 0.25%. Final volume was 100 uL for 96-well plate and 50 uL for 384-well plate. The cell plate was then placed in an incubator at 37° C. with 5% CO2 for 24 hours.
The cells were then gently washed with 50 uL-100 uL cold PBS before proceeding to addition of lysis buffer. 30 uL-50 uL of room temperature lysis buffer with DNAse I (and optionally RNAsin) was added to each well. Cells were shaken/mixed thoroughly at room temperature for 5-10 minutes for lysis to take place and then 3 uL-5 uL of room temperature stop solution was added and wells were shaken/mixed again. After 2-5 minutes, the cell lysate plate was transferred to ice for RT-qPCR reaction setup. The lysates could also be frozen at −80° C. for later use.
In some cases, a direct lysis buffer was used. An appropriate volume of 3× lysis buffer (10 mM Tris, 150 mM NaCl, 1.5%-2.5% Igepal and 0.1-1 U/uL RNAsin, pH 7.4) was directly added to either K562 or A673 cells in media and mixed by pipetting 3 times. The plates were then incubated at room temperature with shaking/rocking for 20-50 minutes to allow for lysis to take place. After this time, the cell lysate plate was transferred to ice to set up for the RT-qPCR reactions. The lysates could also be frozen at −80° C. for later use.

[3] = system: SMN2 mRNA; assay: RT-qPCR splicing assay, SMN2 canonical junction (CJ) mRNA; assay type: cell-based, human; conditions: Homo sapiens; canonical junction qPCR panel, Table 5; read-out: SMN2 (decrease in CJ mRNA levels, IC50)
Method in brief: (§1)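 Canonical-junction transcript levels in compound-treated A673 or K562 cells (24 h, up to 10 uM final) were determined from lysates by RT-qPCR with housekeeping-gene normalization.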

[4] = system: Target C; assay: RT-qPCR splicing assay panel, Target C canonical junction (CJ) mRNA; assay type: cell-based, human; conditions: Homo sapiens; canonical junction qPCR panel, Table 5; read-out: Target C (decrease in CJ mRNA levels, IC50)
Method in brief: as §1

[5] = system: K562 (human chronic myelogenous leukemia) cells; assay: Cell Titer Glo 2.0 cell viability assay; assay type: cell-based; conditions: Homo sapiens, K562, 72 h, K562 cells, 72 hours, Cell Titer Glo 2.0; read-out: K562 GI50
[6] = decrease in HTT canonical junction (CJ) mRNA, RT-qPCR, read-out: HTT CJ IC50
[7] = canonical junction qPCR panel, Table 5, read-out: HTT (decrease in CJ mRNA levels, IC50)
[8] = canonical junction qPCR panel, Table 5, read-out: MYB (decrease in CJ mRNA levels, IC50)
[9] = decrease in MYB canonical junction (CJ) mRNA, RT-qPCR, read-out: MYB CJ IC50

| Structure (SMILES) | IC50 [1, 6] [nM] | AC50 ([1]; RT-qPCR) [nM] | IC50 [1, 7] [nM] | IC50 [2, 8] [nM] | IC50 [2, 9] [nM] | AC50 ([2]; RT-qPCR) [nM] | IC50 [3] [nM] | IC50 [4] [nM] | GI50 [5] [nM] |
| --- | --- | --- | --- | --- | --- | --- | --- | --- | --- |
| Cc1cn2nc(-c3ccc4c(=O)n(C5CCNCC5)ccc4n3)cc(C)c2n1 [Compound 1499, 2-(2,8-dimethylimidazo[1,2-b]pyridazin-6-yl)-6-(4-piperidyl)-1,6-naphthyridin-5-one] | < 100 | < 100 | < 100 | < 100 | < 100 | < 100 | < 100 | 100 to 1000 | 100 to 1000 |
| CN1CCN(c2ccc3ncn(-c4cc(F)c5nn(C)cc5c4)c(=O)c3c2)CC1 [Compound 2194] | 1000 to 10000 | 1000 to 10000 | 1000 to 10000 | 1000 to 10000 | 1000 to 10000 | 1000 to 10000 | 1000 to 10000 | 1000 to 10000 | 1000 to 10000 |
| Cn1cc2cc(-c3ncc4c(=O)n(C56CCC(N)(CC5)C6)ccc4n3)cc(F)c2n1 [Compound 1489, 6-(4-aminonorbornane-1-yl)-2-(7-fluoro-2-methyl-indazol-5-yl)pyrido[4,3-d]pyrimidin-5-one] | 1000 to 10000 | 1000 to 10000 | 1000 to 10000 | 100 to 1000 | 100 to 1000 | 100 to 1000 | < 100 | 1000 to 10000 | 100 to 1000 |
| Cc1c(O)c(-c2ncc3c(=O)n([C@H]4CC[C@@H](N)C4)ccc3n2)cc2cn(C)nc12 [Compound 1473, 6-[(1S,3R)-3-aminocyclopentyl]-2-(6-hydroxy-2,7-dimethyl-indazol-5-yl)pyrido[4,3-d]pyrimidin-5-one] | > 10000 | 1000 to 10000 | 1000 to 10000 | 100 to 1000 | 100 to 1000 | 100 to 1000 | < 100 | 1000 to 10000 | 100 to 1000 |
| Cc1c(O)c(-c2ccc3c(=O)n([C@H]4CCN[C@@H](C)C4)ccc3n2)cc2cn(C)nc12 [Compound 1520, 2-(6-hydroxy-2,7-dimethyl-indazol-5-yl)-6-[(2S,4S)-2-methyl-4-piperidyl]-1,6-naphthyridin-5-one] | 100 to 1000 | < 100 | < 100 | < 100 | < 100 | < 100 | < 100 | 100 to 1000 | < 100 |
| C[C@H]1C[C@@H](n2ccc3nc(-c4cc(F)c5nn(C)cc5c4)ncc3c2=O)CCN1 [Compound 1503, 2-(7-fluoro-2-methyl-indazol-5-yl)-6-[(2S,4S)-2-methyl-4-piperidyl]pyrido[4,3-d]pyrimidin-5-one] | 100 to 1000 | 100 to 1000 | 100 to 1000 | 100 to 1000 | < 100 | 100 to 1000 | < 100 | 100 to 1000 | 100 to 1000 |
| Cc1c(O)c(-c2ncc3c(=O)n(C45CCC(N(C)C)(CC4)C5)ccc3n2)cc2cn(C)nc12 [Compound 1488] | 1000 to 10000 | 100 to 1000 | 100 to 1000 | 100 to 1000 | 100 to 1000 | 100 to 1000 | < 100 | 1000 to 10000 | 100 to 1000 |
| Cc1cn2cc(-c3nc(C)c4c(=O)n([C@H]5CCN[C@@H](C)C5)ccc4n3)cc(F)c2n1 [Compound 1501, 2-(8-fluoro-2-methyl-imidazo[1,2-a]pyridin-6-yl)-4-methyl-6-[(2S,4S)-2-methyl-4-piperidyl]pyrido[4,3-d]pyrimidin-5-one] | 100 to 1000 | 100 to 1000 | 100 to 1000 | < 100 | < 100 | < 100 | < 100 | 100 to 1000 | 100 to 1000 |
| Cc1cn2nc(-c3ccc4c(=O)n([C@H]5CCNC6(CC6)C5)ncc4n3)cc2c(C)n1 [Compound 1549, 6-[(7S)-4-azaspiro[2.5]octan-7-yl]-2-(4,6-dimethylpyrazolo[1,5-a]pyrazin-2-yl)pyrido[2,3-d]pyridazin-5-one] | 100 to 1000 | 100 to 1000 | 100 to 1000 | 1000 to 10000 | 1000 to 10000 | 1000 to 10000 | 100 to 1000 | 1000 to 10000 | 1000 to 10000 |
| Cn1cc2cc(-c3ccc4c(=O)n(C56CCC(N)(CC5)C6)ccc4n3)c(O)cc2n1 [Compound 1481, 6-(4-aminonorbornane-1-yl)-2-(6-hydroxy-2-methyl-indazol-5-yl)-1,6-naphthyridin-5-one] | 1000 to 10000 | 100 to 1000 | 100 to 1000 | < 100 | 100 to 1000 | < 100 | < 100 | 1000 to 10000 | < 100 |
| Cc1c(O)c(-c2ccc3c(=O)n(C45CCC(N)(CC4)C5)ccc3n2)cc2cn(C)nc12 [Compound 1486] | 1000 to 10000 | 100 to 1000 | 100 to 1000 | < 100 | 100 to 1000 | < 100 | < 100 | 1000 to 10000 | < 100 |
| Cc1cn2cc(-c3ncc4c(=O)n(C5C[C@H](C)N[C@@H](C)C5)ccc4n3)cc(F)c2n1 (stereo partly drawn) [Compound 1482, 6-[(2S,6S)-2,6-dimethyl-4-piperidyl]-2-(8-fluoro-2-methyl-imidazo[1,2-a]pyridin-6yl)pyrido[4,3-d]pyrimidin-5-one] | 1000 to 10000 | 1000 to 10000 | 1000 to 10000 | < 100 | 100 to 1000 | < 100 | < 100 | 100 to 1000 | < 100 |
| CN[C@H]1CC[C@@H](n2ccc3nc(-c4cc5cn(C)nc5c(C)c4O)ncc3c2=O)C1 [Compound 1478, 2-(6-hydroxy-2,7-dimethyl-indazol-5-yl)-6-[(1R,3S)-3-(methylamino)cyclopentyl]pyrido[4,3-d]pyrimidin-5-one] | 1000 to 10000 | 1000 to 10000 | 1000 to 10000 | 100 to 1000 | 100 to 1000 | 100 to 1000 | < 100 | 1000 to 10000 | 100 to 1000 |
